Results: paper PMC13206458, “A Synergistic Inhibitor Development Strategy Against Human UDP‐Galactose‐4‐Epimerase” (Angewandte Chemie (International Ed. in English), 2026)
Each block holds one compound with its values, some of them ahead of it.

How the values were obtained:
[1] = molecular target: T1, GalE (Homo sapiens, UniProt Q14376); assay: Isothermal titration calorimetry (ITC); format: binding; design: His tag (3C-cleavable; concluded from HisTrap purification and 3C cleavage) (cleaved yes); made in house; host or cells: Sf21 insect cells (baculovirus, described before) or E. coli BL21 (DE3); details: 25 °C, one experiment, approximate/estimated
T1 sequence (Q14376 1-348): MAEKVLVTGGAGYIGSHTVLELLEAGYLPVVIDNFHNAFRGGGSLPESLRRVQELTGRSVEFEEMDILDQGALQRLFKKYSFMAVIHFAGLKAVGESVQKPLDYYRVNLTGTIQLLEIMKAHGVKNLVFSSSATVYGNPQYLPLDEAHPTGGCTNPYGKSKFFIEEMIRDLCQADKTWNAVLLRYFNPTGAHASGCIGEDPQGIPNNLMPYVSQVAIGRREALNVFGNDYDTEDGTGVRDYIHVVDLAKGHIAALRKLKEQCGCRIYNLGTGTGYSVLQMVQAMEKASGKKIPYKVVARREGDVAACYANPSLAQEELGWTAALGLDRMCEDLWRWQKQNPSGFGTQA

[2] = molecular target: T1, GalE; assay: Intact-protein LCMS covalent modification; format: binding; design: His tag (3C-cleavable; concluded from HisTrap purification and 3C cleavage) (cleaved yes); made in house; host or cells: Sf21 insect cells (baculovirus, described before) or E. coli BL21 (DE3); details: 0.5 µM GalE, 100 µM compound, 24 h incubation, one experiment
Source text: To advance GalE inhibitors towards a suitable probe, we next evaluated available crystal structures to identify nearby nucleophilic residues for developing covalent inhibitors (Figure 3A). Three residues close to the ligand binding pocket were identified as potential modification points for commonly employed covalent warheads, Tyr211, Tyr230 and Lys295 (Figure 3B). We screened a library of 347 sulfonyl fluoride‐containing fragments, reported to target Tyr/Lys residues (Figure 3C). Screening was performed by incubating fragments at 100 µM with 0.5 µM purified GalE for 24 h. Protein modification was then determined by intact‐protein LCMS. In this experiment, we deliberately omitted the addition of the NAD cofactor to keep the experimental conditions simple and potentially allow for the sampling of a larger conformational ensemble in GalE. […]
Buffer AGX1_B over 17 min.
A 5 µL sample was injected […]
The flow rate and temperature were set to 0.5 mL/min and 70 °C, respectively. […] The obtained spectra were analysed and deconvoluted with the MassHunter BioConfirm software (Agilent Technologies, Cheshire, UK). […] The spectra were then exported and analysed using software developed internally at GSK to determine relative % labelling. […]
controls were included. Samples were analysed by intact-LCMS as described above and the relative % protein modification determined. […]

[3] = molecular target: T1, GalE; assay: Covalent fragment kinetics assay by intact-protein LCMS; format: binding; design: His tag (3C-cleavable; concluded from HisTrap purification and 3C cleavage) (cleaved yes); made in house; host or cells: Sf21 insect cells (baculovirus, described before) or E. coli BL21 (DE3)
[4] = molecular target: T1, GalE; assay: Covalent fragment site identification by tryptic digest LCMS/MS; design: His tag (3C-cleavable; concluded from HisTrap purification and 3C cleavage) (cleaved yes); made in house; host or cells: Sf21 insect cells (baculovirus, described before) or E. coli BL21 (DE3)
Source text: • Options: Optimisation of hydrogens, keep tight waters (those that make 3 or more H-bonds), optimise His, Pro, Asn, Gln, and Cys side chains.
• Options: Optimisation of formal and partial charges, protonation states (at pH 7.5) and hydrogen placement.
• Identification of the binding pocket and building of receptor maps around X0213 using the ICM virtual screening function.
• Docking of libraries from SDFiles using the ICM virtual ligand screening function, selecting a thoroughness score of 3.
• All other docking parameters kept as default, and no additional triaging was […]
WBC01 and WBC02 Covalent Fragment Site Identification Mass Spectrometry Recombinant human GalE (10 µM GalE, 25 mM HEPES, 50 mM NaCl) was first incubated with either WBC01 or WBC02 (25, 50, or 100 µM) or matched 1% (V/V) DMSO control for 24 hours at room temperature. Samples were separated by SDS-PAGE gel, stained with colloidal Coomassie InstantBlue (Abcam, Cambridge, UK), bands corresponding to GalE were excised, reduced in 10 mM DTT (in water) for 20 minutes at 55 °C, alkylated with 55 mM iodoacetamide (IAA) in the same buffer at room temperature for 20 minutes, and digested overnight using 100 ng trypsin in 10 mM ammonium bicarbonate at 37 °C (Promega, Wisconsin, USA) before being acidified with to 0.1% Trifluoracetic acid (TFA).
On an Ultimate 3000 nanoRSLC HPLC (Thermo Scientific, Massachusetts, USA), 1-10 µL of protein sample was loaded on a 20 mm x 75 µm Pepmap C18 trap column (Thermo Scientific) prior to elution via a 50 cm x 75 µm EasySpray C18 column into a Lumos Tribrid Orbitrap mass spectrometer (Thermo Scientific). A 45 minute gradient of 6% - 40% B was used followed by washing and re-equilibration (A= 2% ACN, 5% DMSO, 0.1% formic acid; B= 80% ACN, 5% DMSO, 0.1% formic acid). […]
bottom plate from a 10 mM source in DMSO. […] The plate was sealed, centrifuged (1 min, 1000 rpm), incubated at 20 °C for 6 h, and 15 µL aliquots were subsequently removed and analyzed by intact protein LC-MS to confirm modification. […]

[5] = molecular target: T1, GalE; assay: GalE epimerisation assay (HPAEC, UDP-Gal to UDP-Glc), non-covalent concentration-response
Experimental: The GalE enzyme assay uses high‐performance anion exchange chromatography (HPAEC) to determine the conversion of UDP‐Gal to UDP‐Glc (Figure S3A) [28].
For in vitro epimerisation, 20 µL reactions were performed in 25 mM HEPES, pH 7.5,
50 mM NaCl, 200 µM NAD with 100 µM UDP-Gal and 5 nM GalE. Reactions were run
minute. Samples were cooled to 4 °C and analysed by high performance liquid
chromatography (HPLC) using an ArcPremier Waters instrument with a Dionex
CarboPac PA1 IC (2mm x 150 mM) column (Waters, Wilmslow, UK). Injection volume
was 5 µL. Eluent A was 1 M NaOAc/1 mM NaOH (Sigma-Aldrich, St. Louis, USA).
The % conversion for each assay was determined by
the relative difference in peak area between UDP-Gal and UDP-Glc peaks. Kinetics
factors (KM and kcat) were determined by non-linear curve fitting using Graphpad Prism
9.0 GraphPad Software. Calculations used a modified version of the Michaelis-Menten
𝜈(𝐺𝐴𝐿𝐸) = [𝐺𝐴𝐿𝐸]! ∙ 𝑘#$! ∙[𝑈𝐷𝑃 − 𝐺𝑎𝑙]
Equation 1: Michaelis-Menten Equation as used in GraphPad.
Where 𝜈 is the initial rate in µM/s.
𝐾%is the Michaelis-Menten constant in µM.
[𝐺𝐴𝐿𝐸]! is the concentration of GalE in µM in the assay.
𝑘#$!is the turnover number in s-1.
[𝑈𝐷𝑃 − 𝐺𝑎𝑙] is the concentration of UDP-Gal at the start of the reaction in µM.
Non-Covalent Compound Concentration-Response Assay […]
only-controls and activity assessed by epimerisation assay.

[6] = molecular target: T1, GalE; assay: Differential scanning fluorimetry (DSF) thermal shift assay; format: binding; design: His tag (3C-cleavable; concluded from HisTrap purification and 3C cleavage) (cleaved yes); made in house; host or cells: Sf21 insect cells (baculovirus, described before) or E. coli BL21 (DE3); details: relative to DMSO controls, three technical replicates
[7] = Hepatocyte stability assay; format: in vitro ADME; details: hepatocytes, preliminary DMPK
[8] = molecular target: T2, AGX1 (Homo sapiens, UniProt Q16222); assay: AGX1 inhibition assay; details: 400 µM WBX09, multiple enzyme concentrations
T2 sequence (Q16222 1-505 isoform Q16222-2, species assumed): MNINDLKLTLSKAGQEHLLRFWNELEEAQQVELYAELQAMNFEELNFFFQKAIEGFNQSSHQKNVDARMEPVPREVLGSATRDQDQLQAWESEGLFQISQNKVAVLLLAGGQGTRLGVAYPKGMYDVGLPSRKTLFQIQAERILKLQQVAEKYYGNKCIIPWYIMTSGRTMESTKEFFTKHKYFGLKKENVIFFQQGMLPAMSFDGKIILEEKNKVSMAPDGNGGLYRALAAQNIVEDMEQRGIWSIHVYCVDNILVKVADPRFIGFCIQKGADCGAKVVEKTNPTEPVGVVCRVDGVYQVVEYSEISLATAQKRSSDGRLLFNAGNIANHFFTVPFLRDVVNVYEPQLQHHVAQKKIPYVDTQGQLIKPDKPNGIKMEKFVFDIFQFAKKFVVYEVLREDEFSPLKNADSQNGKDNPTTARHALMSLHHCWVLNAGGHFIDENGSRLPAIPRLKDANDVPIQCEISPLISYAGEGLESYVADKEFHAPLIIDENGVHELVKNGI
Experimental: Recombinant AGX1 was expressed before.[14] Commercial N-Acetyl-D-glucosamine 1-
phosphate disodium salt (GlcNAc-1-P, Sigma Aldrich) was used as a substrate to
absorbance-based assay. Reactions were carried out using 0.5 mM GlcNAc-1-P, 1
either 5 nM, 10 nM or 20 nM AGX1 in a total volume of 20 µL reaction buffer (5 mM
Reactions were stopped by the addit ion of an equal volume of ice-cold acetonitrile,
followed by centrifugation at 16200 g, 4 °C for 30 min. The supernatant of each
reaction was analysed by injecting 9 µL into Acquity H -Class PLUS QDa UPLC -MS
(Waters, Milford, USA) equipped with an ACQUITY UPLC® Glycan BEH Amide
column (130 Å, 1.7 μ m, 2.1 x 100 mm, Waters). Samples were run a t a flow rate of
0.35 mL/min, column temperature at 50 °C and sample manager (sample tray) at 10
°C using Buffer AGX1_ A (10 mM ammonium formate at pH 4.5); Buffer AGX1_ B (10
Product formation was monitored by absorption at 260
nm and further confirmed by mass detection in negative mode. Turnover (%) was
determined by integration of the product’s UV peaks and plotting it against a standard
curve of 0-2.5 mM UDP-GlcNAc (Sigma- Aldrich) produced by serial dilution in final

[9] = molecular target: T3, MGAT2 (Homo sapiens, UniProt Q10469); assay: MGAT2 inhibition assay; details: 400 µM WBX09, multiple enzyme concentrations
T3 sequence (Q10469 1-447): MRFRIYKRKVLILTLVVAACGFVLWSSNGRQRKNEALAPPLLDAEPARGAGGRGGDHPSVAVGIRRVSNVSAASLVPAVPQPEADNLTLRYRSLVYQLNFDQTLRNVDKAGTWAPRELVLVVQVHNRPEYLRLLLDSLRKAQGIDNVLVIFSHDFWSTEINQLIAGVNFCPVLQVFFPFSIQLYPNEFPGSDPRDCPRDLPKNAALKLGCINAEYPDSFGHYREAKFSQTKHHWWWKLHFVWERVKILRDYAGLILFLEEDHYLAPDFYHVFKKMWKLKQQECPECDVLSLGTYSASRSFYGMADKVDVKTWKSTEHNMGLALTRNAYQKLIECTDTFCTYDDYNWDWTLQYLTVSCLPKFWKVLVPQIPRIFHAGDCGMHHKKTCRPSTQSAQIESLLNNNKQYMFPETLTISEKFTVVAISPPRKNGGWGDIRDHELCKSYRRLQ
Experimental: MGAT2 was recombinantly expressed before.[13] Reaction mixtures were prepared by
an equivalent volume of DMSO, in a total of 10 μL reaction buffer (50 mM Tris pH 6.8,
with 5 mM MnCl2, 0.1% BSA and 0.1% Triton-X100). Reactions were carried out at
centrifuged at for 30 min at 14,000 g at 4°C to precipitate proteins. Of each sample, 9
µL of the supernatant was injected onto an Acquity H-Class PLUS QDa UPLC-MS
(Waters) equipped with an ACQUITY UPLC® Glycan BEH Amide column (130 Å, 1.7
μm, 2.1 x 100 mm, Waters). Samples were run at flow rate of 0.35 mL/min using Buffer
MGAT2_A (10 mM Ammonium formate at pH 4.5); Buffer MGAT2_B (10 mM
The turnover of the procainamide acceptor glycan into the
of the acceptor substrate and the product glycan.

[10] = molecular target: T2, AGX1; assay: WBC11 alkyne protein labelling assay (CuAAC, streptavidin blot), AGX1 control; format: binding; design: made in house; details: 10 µM WBC11
Experimental: dependent analysis (DDA).
methionine were allowed. […] (293.30
WBC11 Alkyne protein labelling assay
minutes at room temperature.
Membrane was blocked for 1 hour with
Each total protein signal value was
normalisation factor for each band.
normalised densitometry score.

[11] = molecular target: T1, GalE; assay: WBC11 alkyne protein labelling assay (CuAAC, streptavidin blot), GalE; details: 95°C for 5 min in sodium dodecyl sulphate loading buffer
Experimental: We then used WBC11 to trace covalent GalE modification (Figure 5D). […] The traceable nature of WBC11 allowed us to assess the stability of the sulfonyl ester bond to Tyr211.
Recombinant samples of either GalE or AGX1 (0.5 µg enzyme in 25 mM HEPES pH
7.5, 50 mM NaCl, 200 µM NAD) were incubated with either 10 µM WBC11 alkyne, 100
final conditions) for 1 hour at room temperature in 27 µL volume. Samples then
underwent copper-catalyzed azide-alkyne cycloaddition (CuAAC) with 100 µM biotin
picolyl azide (Sigma-Aldrich), 600 µM copper(II) sulfate, 1.2 mM 2-(4-((Bis((1-(tert-
butyl)-1H-1,2,3-triazol-4-yl)methyl)amino)methyl)-1H-1,2,3-triazol-1-yl)acetic acid
(BTTAA), 5 mM sodium ascorbate, and 5 mM amminoguanidine hydrochloride for 30
concentration. Stability of the covalent bond was assessed by incubating the GalE-
WBC11 conjugate for 5 minutes at 95 °C. Samples were run on an 4%-20% SDS
PAGE gel (CriterionTM TGXTM Precast Midi Protein Gel, Bio-Rad) for 70 mins at 160V.
Western blot transfer to 0.2 µm nitrocellulose membrane (Bio-Rad) was done with the
Transblot-Blot Turbo Transfer System (Bio-Rad) at the HIGH MW protocol (10 mins,
2.5 A, up to 25 V). For total protein staining, membrane was incubated with Revert 700
Total Protein stain (LI-COR) for 5 mins. Membrane was blocked for 1 hour with […]
analysed on Image Studio (version 6.0, LI-COR). […]

[12] = GalE incubated with 100, 50 or 25 µM compound, tryptic digest MS

Kd [1]: ~468 µM
Compound: CCNC(=O)Nc1cc(C)on1 [X0213]

Compound: Cc1cc(NC(=O)NCc2cccc(S(=O)(=O)F)c2)no1 [WBC03]
protein modification % [2]: > 95%
kinact/KI [3]: 11.7 M⁻¹ s⁻¹
residue modified ([4]; 200-fold excess of compound, tryptic digest LCMS/MS): only Tyr211

IC50 [5]: 115 µM
Kd [1]: 9 ± 6 µM
ΔTm [6]: 3.1 °C
Compound: Cc1cc(NC(=O)NCCC(=O)Nc2ccncc2)no1 [WBX04]

Compound: O=S(=O)(F)c1cccc(-c2cc(O)c3ccccc3n2)c1 [WBC01]
residue modified [4, 12]: Tyr211

half-life [7]: 16.4 min
hepatocyte CLint ([7]; read-out: intrinsic clearance): 42.4 µL/min/1e6 cells
effect on AGX1 activity [8]: No inhibition
effect on MGAT2 activity [9]: No inhibition
Compound: O=C(CCNC(=O)Nc1cc(C2CCC2)on1)Nc1ccncc1 [WBX09]

Compound: O=C(NCc1ccc(Cl)c(Cl)c1)c1cccc(S(=O)(=O)F)c1 [WBC02]
residue modified [4, 12]: Tyr211

Compound: C#Cc1cc(CNC(=O)Nc2cc(C3CCC3)on2)cc(S(=O)(=O)F)c1 [WBC11]
biotin tagging of AGX1 control protein [10]: band of lower intensity
intensity of GalE-WBC11 adduct after heating (stability of covalent bond) [11]: did not change
